Here are results for ten compounds from patent US4717767A, “7-amino-3-(pyrazinylmethyl) or (pyridazinylmethyl)-cephalosporins” (Toyama Chemical Co., Ltd., priority 1982, dated 1988).

What all share (type): cell-based
One assay deals with Kl. pneumoniae Y-4. The assay can be described thus: Antibacterial activity (MIC), Kl. pneumoniae Y-4. As to conditions: Klebsiella pneumoniae, Y4; penicillinase-producing strain; Heart Infusion agar, 37° C., 20 hours, 10^6 cells/ml. The text has this: (§1) The amount of the inoculated bacteria was 10^4 cells/plate (10^6 cells/ml).
In a further assay the test system is Pro. vulgaris GN76. The assay can be described thus: Antibacterial activity (MIC), Pro. vulgaris GN76. As to conditions: Proteus vulgaris, cephalosporinase-producing strain, Heart Infusion agar, 37° C., 20 hours, 10^6 cells/ml.
Description: as §1

Another assay relates to E. coli NIHJ. The assay can be described thus: Antibacterial activity (MIC), E. coli NIHJ. As to conditions: Escherichia coli; Heart Infusion agar, 37° C., 20 hours, 10^4 cells/plate (10^6 cells/ml).
Description: as §1

The test system of the next assay is Ser. marcescens W-134. The assay can be described thus: Antibacterial activity (MIC), Ser. marcescens W-134. As to conditions: Serratia marcescens.
Description: as §1

A further assay relates to Kl. pneumoniae Y-41. The assay can be described thus: Antibacterial activity (MIC), Kl. pneumoniae Y-41. As to conditions: Klebsiella pneumoniae, Y41; Heart Infusion agar, 37° C., 20 hours, 10^6 cells/ml.
Description: as §1

The next assay has as its system Cit. freundii N-7. The assay can be described thus: Antibacterial activity (MIC), Cit. freundii N-7. As to conditions: Citrobacter freundii.
Description: as §1

In a further assay the test system is E. coli TK-3. The assay can be described thus: Antibacterial activity (MIC), E. coli TK-3. As to conditions: Escherichia coli.
Description: as §1

For another assay, the system named is Pro. mirabilis T-111. The assay can be described thus: Antibacterial activity (MIC), Pro. mirabilis T-111. As to conditions: Proteus mirabilis.
Description: as §1

In another assay the test system is Pro. morganii T-216. The assay can be described thus: Antibacterial activity (MIC), Pro. morganii T-216. As to conditions: Morganella morganii, T216; Heart Infusion agar, 37° C., 20 hours, 10^6 cells/ml.
Description: as §1

The next assay deals with Ser. marcescens IID620. The assay can be described thus: Antibacterial activity (MIC), Ser. marcescens IID620. As to conditions: Serratia marcescens.
Description: as §1

Another assay relates to Kl. pneumoniae Y-50. The assay can be described thus: Antibacterial activity (MIC), Kl. pneumoniae Y-50. As to conditions: Klebsiella pneumoniae, Y50; Heart Infusion agar, 37° C., 20 hours, 10^6 cells/ml.
Description: as §1

The subject of another assay is Ps. aeruginosa GN918. The assay can be described thus: Antibacterial activity (MIC), Ps. aeruginosa GN918. As to conditions: Pseudomonas aeruginosa, cephalosporinase-producing strain, Heart Infusion agar, 37° C., 20 hours, 10^6 cells/ml.
Description: as §1

Setting [1] is: W134, Heart Infusion agar, 37° C., 20 hours, 10^6 cells/ml, read-out: MIC.
Setting [2] is: N7, Heart Infusion agar, 37° C., 20 hours, 10^6 cells/ml, read-out: MIC.
The mark [3] stands for this setting: TK3, penicillinase-producing strain, Heart Infusion agar, 37° C., 20 hours, 10^6 cells/ml, read-out: MIC.
Setting [4] is: IID620, Heart Infusion agar, 37° C., 20 hours, 10^6 cells/ml, read-out: MIC.
[5] abbreviates: T111, Heart Infusion agar, 37° C., 20 hours, 10^6 cells/ml, read-out: MIC.

In brackets after ≈: the same amount, converted by molar mass. Counter-ions that a name gives are not always drawn. Like-named read-outs stand apart in the source and are kept apart here.

Regarding `CO/N=C(\C(=O)NC1C(=O)N2C(C(=O)O)=C(Cn3ccn(C(C)C)c(=O)c3=O)CSC12)c1csc(N)n1` (stereo not drawn) [D, trifluoroacetic acid salt of 7-[2-(2-aminothiazol-4-yl)-(syn)-methoxyiminoacetamido]-3-{[1-(4-isopropyl-2,3-dioxo-1,2,3,4-tetrahydropyrazinyl)]methyl}-Δ^3-cephem-4-carboxylic acid], the MIC (commonly the lowest concentration found to suppress growth) was 0.39 µg/mL against Kl. pneumoniae Y-4; 0.39 µg/mL in the assay on Pro. vulgaris GN76; ≤ 0.1 µg/mL against E. coli NIHJ; ≤ 0.1 µg/mL in the assay with Ser. marcescens W-134 (setting [1]); ≤ 0.1 µg/mL with Kl. pneumoniae Y-41; 1.56 µg/mL in the assay with Cit. freundii N-7 (setting [2]). The minimum inhibitory concentration (MIC) in the assay on E. coli TK-3 (setting [3]) was ≤ 0.1 µg/mL; with Pro. mirabilis T-111 (T111, 20 h), 0.2 µg/mL; in the assay on Pro. morganii T-216, ≤ 0.1 µg/mL; in the assay on Ser. marcescens IID620 (setting [4]), ≤ 0.1 µg/mL; in the assay on Kl. pneumoniae Y-50 it was ≤ 0.1 µg/mL.

Turning to `Cn1ccn(CC2=C(C(=O)O)N3C(=O)C(NC(=O)/C(=N\OCC(=O)O)c4csc(N)n4)C3SC2)c(=O)c1=O` (centres unmarked) [G], the minimal inhibitory concentration (MIC) in the assay on Kl. pneumoniae Y-4 is 0.2 µg/mL (≈ 0.354 µM); in the assay with Pro. vulgaris GN76, ≤ 0.1 µg/mL; with E. coli NIHJ, ≤ 0.1 µg/mL; with Ser. marcescens W-134 (setting [1]) it was ≤ 0.1 µg/mL; against Kl. pneumoniae Y-41, ≤ 0.1 µg/mL; in the assay with Cit. freundii N-7 (setting [2]), 1.56 µg/mL (≈ 2.76 µM). The MIC was 0.2 µg/mL (≈ 0.354 µM) in the assay with E. coli TK-3 (setting [3]); ≤ 0.1 µg/mL with Pro. mirabilis T-111 (setting [5]); ≤ 0.1 µg/mL with Pro. morganii T-216; ≤ 0.1 µg/mL in the assay on Ser. marcescens IID620 (setting [4]); 0.2 µg/mL (≈ 0.354 µM) in the assay with Kl. pneumoniae Y-50.

On to `CCn1ccn(CC2=C(C(=O)O)N3C(=O)C(NC(=O)/C(=N\OC)c4csc(N)n4)C3SC2)c(=O)c1=O` (stereo not drawn) [C, trifluoroacetic acid salt of 7-[2-(2-aminothiazol-4-yl)-2-(syn)-methoxyiminoacetamido]-3-{[1-(4-ethyl-2,3-dioxo-1,2,3,4-tetrahydropyrazinyl)]methyl}-Δ^3-cephem-4-carboxylic acid], for which the minimal inhibitory concentration (MIC) was ≤ 0.1 µg/mL against Kl. pneumoniae Y-4; 1.56 µg/mL with Pro. vulgaris GN76; ≤ 0.1 µg/mL in the assay with E. coli NIHJ; 6.25 µg/mL against Ps. aeruginosa GN918; ≤ 0.1 µg/mL in the assay on Ser. marcescens W-134 (setting [1]); ≤ 0.1 µg/mL in the assay with Kl. pneumoniae Y-41. The MIC was 0.78 µg/mL in the assay with Cit. freundii N-7 (setting [2]); ≤ 0.1 µg/mL with E. coli TK-3 (setting [3]); ≤ 0.1 µg/mL in the assay on Pro. mirabilis T-111 (setting [5]); ≤ 0.1 µg/mL against Pro. morganii T-216; ≤ 0.1 µg/mL with Ser. marcescens IID620 (setting [4]); ≤ 0.1 µg/mL with Kl. pneumoniae Y-50.

`CO/N=C(\C(=O)NC1C(=O)N2C(C(=O)O)=C(Cn3ccncc3=O)CSC12)c1csc(N)n1` (stereo not drawn) [J, trifluoroacetic acid salt of 7-[2-(2-aminothiazol-4-yl)-2-(syn)-methoxyiminoacetamido]-3-{[1-(2-oxo-1,2-dihydropyrazinyl)]methyl}-Δ^3-cephem-4-carboxylic acid]: the MIC with Pro. vulgaris GN76 is 0.78 µg/mL; with E. coli NIHJ, ≤ 0.1 µg/mL; against Ser. marcescens W-134 (W134, 20 h), 0.39 µg/mL; in the assay with Cit. freundii N-7 (setting [2]), 0.78 µg/mL; in the assay on E. coli TK-3 (setting [3]), 0.2 µg/mL; with Pro. mirabilis T-111 (setting [5]), 0.2 µg/mL. Also, the MIC against Pro. morganii T-216 is ≤ 0.1 µg/mL; in the assay with Ser. marcescens IID620 (IID620, 20 h), ≤ 0.1 µg/mL; against Kl. pneumoniae Y-50 it was ≤ 0.1 µg/mL.

`CO/N=C(\C(=O)NC1C(=O)N2C(C(=O)O)=C(Cn3[nH]c(=O)ccc3=O)CSC12)c1csc(N)n1` (stereo not drawn) [K, trifluoroacetic acid salt of 7-[2-(2-aminothiazol-4-yl)-2-(syn)-methoxyiminoacetamido]-3-{[1-(3,6-dioxo-1,2,3,6-tetrahydropyridazinyl)]methyl}-Δ^3-cephem-4-carboxylic acid]: the minimal inhibitory concentration (MIC) in the assay on Pro. vulgaris GN76 is ≤ 0.1 µg/mL; in the assay on E. coli NIHJ, ≤ 0.1 µg/mL; in the assay with Ser. marcescens W-134 (setting [1]) it was ≤ 0.1 µg/mL; in the assay with Cit. freundii N-7 (N7, 20 h), 0.78 µg/mL; with E. coli TK-3 (TK3, 20 h), 0.2 µg/mL; in the assay with Pro. mirabilis T-111 (setting [5]), ≤ 0.1 µg/mL. Besides, the MIC against Pro. morganii T-216, in the assay on Ser. marcescens IID620 (setting [4]) and against Kl. pneumoniae Y-50 was ≤ 0.1 µg/mL each time.

With `Cc1ccc(=O)n(CC2=C(C(=O)O)N3C(=O)C(NC(=O)/C(=N\OCC(=O)O)c4csc(N)n4)C3SC2)n1` (centres unmarked) [N], the minimal inhibitory concentration (MIC) against Pro. vulgaris GN76 is ≤ 0.1 µg/mL; in the assay with E. coli NIHJ, ≤ 0.1 µg/mL; in the assay with Ser. marcescens W-134 (setting [1]), ≤ 0.1 µg/mL; against Cit. freundii N-7 (N7, 20 h) it was 0.78 µg/mL (≈ 1.42 µM); in the assay on E. coli TK-3 (setting [3]), 0.2 µg/mL (≈ 0.364 µM); in the assay with Pro. mirabilis T-111 (setting [5]), ≤ 0.1 µg/mL. Moreover, the minimal inhibitory concentration (MIC) is ≤ 0.1 µg/mL against Pro. morganii T-216, ≤ 0.1 µg/mL with Ser. marcescens IID620 (setting [4]) and 0.39 µg/mL (≈ 0.71 µM) in the assay on Kl. pneumoniae Y-50.

Take `CO/N=C(\C(=O)NC1C(=O)N2C(C(=O)O)=C(Cn3nc(C)ccc3=O)CSC12)c1csc(N)n1` (stereo not drawn) [M, trifluoroacetic acid salt of 7-[2-(2aminothiazol-4-yl)-2-(syn)-methoxyiminoacetamido]-3-{[1-(3-methyl-6-oxo-1,6-dihydropyridazinyl)]methyl}-Δ^3-cephem-4-carboxylic acid]: the MIC in the assay with Pro. vulgaris GN76 was 0.2 µg/mL; with E. coli NIHJ, ≤ 0.1 µg/mL; with Ser. marcescens W-134 (W134, 20 h), 0.78 µg/mL; with Cit. freundii N-7 (setting [2]), 0.78 µg/mL; with E. coli TK-3 (setting [3]) it was 0.2 µg/mL; in the assay on Pro. mirabilis T-111 (setting [5]), 0.2 µg/mL. Also, the MIC in the assay with Pro. morganii T-216, in the assay on Ser. marcescens IID620 (setting [4]) and in the assay with Kl. pneumoniae Y-50 was 0.2 µg/mL throughout.

In the case of `CO/N=C(\C(=O)NC1C(=O)N2C(C(=O)O)=C(Cn3ccn(N(C)C)c(=O)c3=O)CSC12)c1csc(N)n1` (stereo not drawn) [E, trifluoroacetic acid salt of 7-[2-(2-aminothiazol-4-yl)-2-(syn)-methoxyiminoacetamido]-3-{[1-(4-dimethylamino-2,3-dioxo-1,2,3,4-tetrahydropyrazinyl)]-methyl}-Δ^3-cephem-4-carboxylic acid], the minimal inhibitory concentration (MIC) against Kl. pneumoniae Y-4 was ≤ 0.1 µg/mL; in the assay with Pro. vulgaris GN76 it was 1.56 µg/mL; against E. coli NIHJ, ≤ 0.1 µg/mL; in the assay on Ser. marcescens W-134 (setting [1]) it was ≤ 0.1 µg/mL; against Kl. pneumoniae Y-41 it was ≤ 0.1 µg/mL; with Cit. freundii N-7 (setting [2]) it was 0.78 µg/mL. Further, the minimum inhibitory concentration (MIC) with E. coli TK-3 (setting [3]), in the assay with Pro. mirabilis T-111 (setting [5]), with Pro. morganii T-216, in the assay on Ser. marcescens IID620 (setting [4]) and against Kl. pneumoniae Y-50 was ≤ 0.1 µg/mL in each case.

As for `Nc1nc(/C(=N/OCC(=O)O)C(=O)NC2C(=O)N3C(C(=O)O)=C(Cn4cc[nH]c(=O)c4=O)CSC23)cs1` (stereo not drawn) [F, 7-[2-(2-aminothiazol-4-yl)-2-(syn)-carboxymethoxyiminoacetamido]-3-{[1-(2,3-dioxo-1,2,3,4-tetrahydropyrazinyl)]methyl}-Δ^3-cephem-4-carboxylic acid], the MIC against Kl. pneumoniae Y-4 is 0.2 µg/mL (≈ 0.363 µM); with Pro. vulgaris GN76, ≤ 0.1 µg/mL; in the assay on E. coli NIHJ, ≤ 0.1 µg/mL; against Ser. marcescens W-134 (W134, 20 h), ≤ 0.1 µg/mL; against Kl. pneumoniae Y-41 it was 0.39 µg/mL (≈ 0.707 µM); in the assay with Cit. freundii N-7 (setting [2]) it was 0.78 µg/mL (≈ 1.41 µM). Also, the minimum inhibitory concentration (MIC) in the assay on E. coli TK-3 (setting [3]), in the assay on Pro. mirabilis T-111 (setting [5]), with Pro. morganii T-216, with Ser. marcescens IID620 (setting [4]) and against Kl. pneumoniae Y-50 was ≤ 0.1 µg/mL each time.

In the case of `Nc1nc(/C(=N/OCC(=O)O)C(=O)NC2C(=O)N3C(C(=O)O)=C(Cn4[nH]c(=O)ccc4=O)CSC23)cs1` (stereo not drawn) [L, formic acid salt of 7-[2-(2-aminothiazol-4-yl)-2-(syn)-carboxymethoxyiminoacetamido]-3-{[1-(3,6-dioxo-1,2,3,6-tetrahydropyridazinyl)]methyl}-Δ^3-cephem-4-carboxylic acid], the minimal inhibitory concentration (MIC) against Pro. vulgaris GN76 was ≤ 0.1 µg/mL; against E. coli NIHJ, ≤ 0.1 µg/mL; against Ser. marcescens W-134 (W134, 20 h) it was ≤ 0.1 µg/mL; against Cit. freundii N-7 (N7, 20 h), 3.13 µg/mL; in the assay on E. coli TK-3 (setting [3]), 0.78 µg/mL; in the assay on Pro. mirabilis T-111 (setting [5]) it was ≤ 0.1 µg/mL. Also, the minimum inhibitory concentration (MIC) was ≤ 0.1 µg/mL in the assay on Pro. morganii T-216; 1.56 µg/mL against Ser. marcescens IID620 (IID620, 20 h); 0.78 µg/mL in the assay on Kl. pneumoniae Y-50.
